Measured values taken from patent US6552069B1, “3-methyl-chroman and -thiochroman derivatives” (Chugai Seiyaku Kabushiki Kaisha, priority 1999, dated 2003).

Test system: estradiol-induced increase in uterine weight
Assay: Anti-estrogenic activity (oral administration) in ovariectomized mice administered with 17β-estradiol
Type: in vivo
Details: 10 mg/kg p.o. once a day for 3 days, suspended in 5% arabic gum, ovariectomized ICR mice given 17β-estradiol-benzoate 0.1 μg/mouse s.c. for 3 days, uteri weighed 24 hours after last administration
Method: Test compounds were assayed for their oral anti-estrogenic activity in the following manner. In this experiment, the compounds prepared in Examples mentioned above were used as test compounds. As control compounds, the following three were used: a compound described in Example 7 of WO98/25916; ZM; and a compound corresponding to general formula (1) of the present invention, provided that R2 was a C2 perfluoroalkyl group (perfluoroethyl), i.e., 10-[(3RS,4RS)-7-hydroxy-3-(4-hydroxyphenyl)-3-methylthiochroman-4-yl]-2-(4,4,5,5,5-pentafluoropentyl)decanoic acid, which had been synthesized according to Reaction Schemes 1 to 7 mentioned above.
In this experiment, each of the test and control compounds was suspended in 5% arabic gum solution and orally administered for 3 days on a once-a-day basis. After 24 hours from the last administration, the test animals were sacrificed and the uteri were removed and weighed.

Row | SMILES | inhibition in vivo at 10 mg/kg [%]
1 | C[C@@]1(c2ccc(O)cc2)COc2cc(O)ccc2[C@@H]1CCCCCCCCCC(CCCC(F)(F)C(F)(F)C(F)(F)C(F)(F)F)C(=O)O (mixture of isomers) [Example 16, 11-[(3RS,4RS)-7-hydroxy-3-(4-hydroxyphenyl)-3-methylchroman-4-yl]-2-(4,4,5,5,6,6,7,7,7-nonafluoroheptyl)undecanoic acid] | 91
2 | C[C@@]1(c2ccc(O)cc2)CSc2cc(O)ccc2[C@@H]1CCCCCCCCCC(CCC(F)(F)C(F)(F)C(F)(F)C(F)(F)F)C(=O)O (mixture of isomers) [Example 11, 11-[(3RS,4RS)-7-hydroxy-3-(4-hydroxyphenyl)-3-methylthiochroman-4-yl]-2-(3,3,4,4,5,5,6,6,6-nonafluorohexyl)undecanoic acid] | 85
3 | C[C@@]1(c2ccc(O)cc2)COc2cc(O)ccc2[C@@H]1CCCCCCCCC(CCCC(F)(F)C(F)(F)C(F)(F)C(F)(F)F)C(=O)O (mixture of isomers) [Example 15, 10-[(3RS,4RS)-7-hydroxy-3-(4-hydroxyphenyl)-3-methylchroman-4-yl]-2-(4,4,5,5,6,6,7,7,7-nonafluoroheptyl)decanoic acid] | 92
4 | C[C@@]1(c2ccc(O)cc2)CSc2cc(O)ccc2[C@@H]1CCCCCCCCC(CCCC(F)(F)C(F)(F)C(F)(F)C(F)(F)F)C(=O)O (mixture of isomers) [Example 9, 10-[(3RS,4RS)-7-hydroxy-3-(4-hydroxyphenyl)-3-methylthiochroman-4-yl]-2-(4,4,5,5,6,6,7,7,7-nonafluoroheptyl)decanoic acid] | 93
5 | C[C@@]1(c2ccc(O)cc2)COc2cc(O)ccc2[C@@H]1CCCCCCCCCC(CCC(F)(F)C(F)(F)C(F)(F)C(F)(F)F)C(=O)O (mixture of isomers) [Example 14, 11-[(3RS,4RS)-7-hydroxy-3-(4-hydroxyphenyl)-3-methylchroman-4-yl]-2-(3,3,4,4,5,5,6,6,6-nonafluorohexyl)undecanoic acid] | 88
6 | C[C@@]1(c2ccc(O)cc2)CSc2cc(O)ccc2[C@@H]1CCCCCCCCC(CCC(F)(F)C(F)(F)C(F)(F)C(F)(F)F)C(=O)O (single isomer, unassigned) [Example 21, Peak 1] | 89
7 | C[C@@]1(c2ccc(O)cc2)COc2cc(O)ccc2[C@@H]1CCCCCCCCC(CCC(F)(F)C(F)(F)C(F)(F)C(F)(F)F)C(=O)O (mixture of isomers) [Example 13, 10-[(3RS,4RS)-7-hydroxy-3-(4-hydroxyphenyl)-3-methylchroman-4-yl]-2-(3,3,4,4,5,5,6,6,6-nonafluorohexyl)decanoic acid] | 84
8 | C[C@@]1(c2ccc(O)cc2)CSc2cc(O)ccc2[C@@H]1CCCCCCCCCC(CCCC(F)(F)C(F)(F)C(F)(F)C(F)(F)F)C(=O)O (mixture of isomers) [Example 12, 11-[(3RS,4RS)-7-hydroxy-3-(4-hydroxyphenyl)-3-methylthiochroman-4-yl]-2-(4,4,5,5,6,6,7,7,7-nonafluoroheptyl)undecanoic acid] | 86
9 | C[C@@]1(c2ccc(O)cc2)CSc2cc(O)ccc2[C@@H]1CCCCCCCCC(CCCC(F)(F)C(F)(F)F)C(=O)O (mixture of isomers) [10-[(3RS,4RS)-7-hydroxy-3-(4-hydroxyphenyl)-3-methylthiochroman-4-yl]-2-(4,4,5,5,5-pentafluoropentyl)decanoic acid, reference compound] | 75
10 | CC1(c2ccc(O)cc2)COc2cc(O)ccc2C1CCCCCCCCCC(CCC(F)(F)C(F)(F)C(F)(F)C(F)(F)F)C(=O)O (single isomer, unassigned) [Example 24, Peak 1, 11-[7-hydroxy-3-(4-hydroxyphenyl)-3-methylchroman-4-yl]-2-(3,3,4,4,5,5,6,6,6-nonafluorohexyl)undecanoic acid] | 85
11 | C[C@@]1(c2ccc(O)cc2)CSc2cc(O)ccc2[C@@H]1CCCCCCCCC(CCC(F)(F)C(F)(F)C(F)(F)C(F)(F)F)C(=O)O (mixture of isomers) [Example 8, 10-[(3RS,4RS)-7-hydroxy-3-(4-hydroxyphenyl)-3-methylthiochroman-4-yl]-2-(3,3,4,4,5,5,6,6,6-nonafluorohexyl)decanoic acid] | 93
